Data reported in patent US20100146646A1, “METHOD OF MONITORING RETINOPATHY” (priority 2007, published 2010).
“Also recorded” adds a separate entry of the source.

Legend:
[1] = tested on: transgenic GFAP-GFP mice (hippocampus, substantia nigra, striatum, olfactory bulb); test: Brain cryosections: transgenic GFP and GFAP immunohistochemistry (gliosis); format: in vivo, mouse
Procedure: (§1) The test compounds 2′-CH3-MPTP (M103), KA (K0250) and IDPN (317306) were purchased from Sigma-Aldrich (St. Louis, Mo., USA). Each mouse in the treatment group received either 4 intraperitoneal (ip) injections of 2′-CH3-MPTP (15 mg/kg in saline, ip, once every 2 hours), a single injection of KA (25 mg/kg in saline, ip) or 3 injections of IDPN (500 mg/kg, ip, once daily). For each neurotoxicant-treated group (n=3), saline was used as a vehicle for the control group (n=3). Retinal imaging was subsequently performed over a period of 14 days.
Retina wholemount and immunohistochemistry (IHC): After perfusing the mice with 1×PBS, followed by 4% fresh paraformaldehyde (in 1×PBS, pH 7.4), the brains were harvested and the eyes enucleated. The eyes were fixed immediately in 4% paraformaldehyde overnight at 4° C., after which they were dissected at the equator with the lens and vitreous removed. The retina was then dissected free from the choroid and sclera and whole mounted on a glass slide. Whole retina was mounted with Vectorshield mounting medium for fluorescence (Vector Laboratories, Inc., Burlingame, Calif., USA; H1000). The brains were first fixed in 4% paraformaldehyde for 4 hr at 4° C. and soaked in 30% sucrose at 4° C. overnight. The processed brain tissues were embedded in OTC freezing medium for sectioning on a cryostat (Leica Microsystems, Nussloch GmbH; CM-3050S). Coronal cryosections (10 μm) of the hippocampus (bregma −1.94 mm, interaural 1.86 mm), SNpc (bregma −3.16 mm, interaural 0.64 mm) and olfactory bulb (bregma 4.28 mm, interaural 8.08 mm) according to the Atlas of Mouse Brain (Franklin and Paxinos, 2001), together with the retina wholemounts were used for IHC using rabbit polyclonal antibodies (in 1:200 dilution) against GFAP (Dako, Z0334). Sections of the SNpc and striatum (bregma 0.62 mm, interaural 4.42 mm) were used for IHC using rabbit polyclonal antibodies (in 1:200 dilution) against tyrosine hydroxylase (TH; Chemicon, Calif., USA; Ab-152). The bound primary antibodies on the tissue sections were stained with a goat IgG conjugated to Texas-red (Abeam, Ab7088) at 1:100 dilution for 2 hr at room temperature, and visualized using confocal microscopy (LSM 510 META, Carl Zeiss Microimaging GmbH, Jena Germany).

[2] = tested on: transgenic GFAP-GFP mice (glia of optic disc and central retina); test: In vivo scanning laser opthalmoscope (SLO) imaging of GFP fluorescence in the optic disc after neurotoxicant injection; design: species or system mouse; conditions: for time point of maximum GFP fluorescence around the fringe of the optic disc: adult GFAP-GFP mice, ip neurotoxicant, SLO imaging over 14 days; for retinal gliosis: neurotoxicant-treated GFAP-GFP mice, summary statement
Excerpt: Transgenic GFAP-GFP mice: The generation and genotyping of the transgenic GFAP-GFP mice were done as previously described (Zhuo et al., 1997). Adult mice (8-10 weeks old) in the FVB/N background were used in the present study. Animal husbandry was provided by National University of Singapore animal holding unit. The experimental protocol covering the current study was approved by the Institutional Animal Care and Use Committee.
as §1
Preparation of Animals: Mice were Anaesthetized by Ip Injections with 0.15 ml/10 g body weight of Avertin (1.5% 2,2,2-tribromoethanol; T48402) purchased from Sigma-Aldrich (St. Louis, Mo., USA), and their pupils dilated with a drop of 0.5% Cyclogyl® sterile ophthalmic solution (cyclopentolate hydrochloride, Alcon®, Puurs, Belgium). Custom-made PMMA hard contact lenses (from Cantor & Nissel (Northamptonshire, UK) were used to correct optical aberration and to avoid dehydration of the mouse eyes. Careful examination by an eye specialist before scanning laser opthalmoscope imaging ruled out the presence of any corneal or lens opacities.
Scanning laser opthalmoscope (SLO) imaging: For the work described here, the second version of Heidelberg Retina Angiograph (HRA II) scanning laser opthalmoscope (Heidelberg Engineering, Dossenheim, Germany) modified for use on mice was employed. The scanning laser opthalmoscope (SLO) is a fundus imaging technique based on the scanning of the fundus with a laser beam from a point source, while the reflected light is detected by a photomultiplier. Incident and reflected light follow a co-axial path. Therefore, more light can pass through small eyes than with conventional fundus cameras. Several reports of SLO imaging in rats (Hossain et al., 1998; Khoobehi and Peyman, 1999; Cordeiro et al., 2004; Genevois et al., 2004) and mice (Jaissle et al., 2001; Xu et al., 2003) have been published, with the latest study by (Seeliger et al., 2005) and (Paques et al., 2006) in evaluating mouse fundus with the first version of the HRA (or HRA I). The HRA II features the two Argon lasers in the short wavelength range (488 nm and 514 nm) and two infrared diode lasers in the long wavelength range (795 nm and 830 nm). The 488 and 795 nm lasers are used for fluorescein and indocyanine green angiography respectively. Appropriate barrier filters of 500 nm and 800 nm, respectively, remove the reflected light with unchanged wavelength and allow only the light emitted by the dye upon stimulation to pass through. The finest definition is 768×768 pixels at an optical resolution of 10 μm/pixel and coupled with three fields of view (nominal values of 15°, 20° and 30°). The focus is adjustable over a +12/−12 diopters range using step increments of 0.25 diopters. A video acquisition mode (48 ms to 96 ms per image) is available. Within any area of interest, a stack of tomographic images (z-scans) up to a maximum depth of 8 mm can be automatically acquired.

[3] = tested on: transgenic GFAP-GFP mice (SNpc and striatum); test: Brain cryosections: tyrosine hydroxylase (TH) immunohistochemistry; format: in vivo, mouse; conditions: a day after administration, vs saline
Procedure: as §1
(§2) Retina wholemount and immunohistochemistry (IHC): After perfusing the mice with 1×PBS, followed by 4% fresh paraformaldehyde (in 1×PBS, pH 7.4), the brains were harvested and the eyes enucleated. The eyes were fixed immediately in 4% paraformaldehyde overnight at 4° C., after which they were dissected at the equator with the lens and vitreous removed. The retina was then dissected free from the choroid and sclera and whole mounted on a glass slide. Whole retina was mounted with Vectorshield mounting medium for fluorescence (Vector Laboratories, Inc., Burlingame, Calif., USA; H1000). The brains were first fixed in 4% paraformaldehyde for 4 hr at 4° C. and soaked in 30% sucrose at 4° C. overnight. The processed brain tissues were embedded in OTC freezing medium for sectioning on a cryostat (Leica Microsystems, Nussloch GmbH; CM-3050S). […]

[4] = tested on: transgenic GFAP-GFP mice (whole-mount retina); test: Retina whole-mount: transgenic GFP and GFAP immunohistochemistry; format: in vivo, mouse; conditions: 7 days after a single ip injection (25 mg/kg), vs saline
Procedure: as §1, §2

[5] = tested on: retinal Müller cells; conditions: injected into the vitreous of the eye; cited from earlier work
[6] = tested on: neuronal and glial cells in the retina; conditions: cited from earlier work
[7] = a day after administration, vs saline
[8] = 7 days after administration, vs saline

Cc1ccccc1C1=CCN(C)CC1 [2′-CH3-MPTP, 1-methyl-4(2′-methylphenyl)-1,2,3,6-tetrahydropyridine]
GFP / gliosis in striatal astrocytes [1, 7]: acute gliosis; also recorded: substantial GFP increase
gliosis in the substantia nigra [1, 7]: gliosis occurs extensively
GFP and GFAP expression in activated astrocytes of the brain ([1]; a day after systemic administration): an increase in GFP and to a lesser extent, GFAP expression
time point of maximum GFP fluorescence around the fringe of the optic disc [2]: 1 days
time of maximal increase in GFP expression in the optic disc ([2]; after administration of the neurotoxicant (4 x 15 mg/kg ip)): 24 h
retinal gliosis [2]: elicits retinal gliosis
TH-immunoreactive midbrain dopaminergic neurons in the SNpc [3]: observable tyrosine hydroxylase (TH) depletion; also recorded: marked depletion
level of TH expression in the striatum [3]: no change in TH expression could be visually observed; also recorded: no detectable changes

N#CCCNCCC#N [IDPN, 3,3-iminodipropionitrile]
gliosis / GFP-positive astrocytes co-localizing with GFAP-immunoreactive cells in the glomerular layer (GL) of the olfactory bulb ([1]; 7 days after administration (3 x 500 mg/kg ip), vs saline): acute gliosis; also recorded: markedly more GFP-positive astrocytes
GFAP-positive cells in the granular cell layer (GCL) of the olfactory bulb [1, 8]: strong increase of GFAP-positive cells
time point of maximum GFP fluorescence around the fringe of the optic disc [2]: 7 days
retinal gliosis [2]: elicits retinal gliosis

C=C(C)[C@H]1CN[C@H](C(=O)O)[C@H]1CC(=O)O [KA, kainic acid]
gliosis in the nerve fiber layer (NFL) of whole-mount retina (transgenic GFP and endogenous GFAP) [4]: severe gliosis
GFAP in the retinal Müller cells [5]: up-regulation of GFAP
level of GFP and GFAP expression in the entire hippocampus area (CA1, CA3, dentate gyrus) ([1]; 7 days after administration, compared to saline control): extremely high level of GFP and GFAP expression
gliosis in astrocytes of the hippocampus (GFP and GFAP) [1, 8]: severe reactive gliosis
time point of maximum GFP fluorescence around the fringe of the optic disc [2]: 7 days
retinal gliosis [2]: elicits retinal gliosis

CN1CC=C(c2ccccc2)CC1 [MPTP, 1-methyl-4-phenyl-1,2,3,6-tetrahydropyrine]
GFAP immunoreactivity of the glial cells of the retina ([6]; several days after injection): increased
microglia in the inner outer retina ([6]; within a week after systemic injection in mice): microglia activation was observed
